According to paper PMC6891286, “Towards the Development of an In vivo Chemical Probe for Cyclin G Associated Kinase (GAK)” (Molecules, 2019):

Key:
Assay in all cases: KINOMEscan
Assay type in all cases: binding
[1] = target: T1, ABL1(Q252H)-nonphosphorylated (Homo sapiens, UniProt P00519, Q252H); settings: 35 at 1 µM; read-out: % inhibition
T1 construct: purchased Eurofins DiscoverX (KINOMEscan)
Experimental: (§1) KinomeScan Assay on 35 was performed as previously described at EuroFins DiscoverX (Fremont, CA, USA).

ALK(C1156Y) = target: T2, ALK(C1156Y) (Homo sapiens, UniProt Q9UM73, C1156Y); settings: 35 at 1 µM; read-out: % inhibition
T2 construct: purchased Eurofins DiscoverX (KINOMEscan)
Experimental: as §1

CDC2L5 = target: T3, CDC2L5 (Homo sapiens, UniProt Q14004); settings: 35 at 1 µM; read-out: % inhibition
T3 construct: purchased Eurofins DiscoverX (KINOMEscan)
Experimental: as §1

CDK2 = target: T4, CDK2 (Homo sapiens, UniProt P24941); settings: 35 at 1 µM; read-out: % inhibition
T4 construct: purchased Eurofins DiscoverX (KINOMEscan)
Experimental: as §1

CDK4 = target: T5, CDK4 (Homo sapiens, UniProt P11802); settings: 35 at 1 µM; read-out: % inhibition
T5 construct: purchased Eurofins DiscoverX (KINOMEscan)
Experimental: as §1

CDK5 = target: T6, CDK5 (Homo sapiens, UniProt Q00535); settings: 35 at 1 µM; read-out: % inhibition
T6 construct: purchased Eurofins DiscoverX (KINOMEscan)
Experimental: as §1

CDKL1 = target: T7, CDKL1 (Homo sapiens, UniProt Q00532); settings: 35 at 1 µM; read-out: % inhibition
T7 construct: purchased Eurofins DiscoverX (KINOMEscan)
Experimental: as §1

CDKL5 = target: T8, CDKL5 (Homo sapiens, UniProt O76039); settings: 35 at 1 µM; read-out: % inhibition
T8 construct: purchased Eurofins DiscoverX (KINOMEscan)
Experimental: as §1

CSNK1G1 = target: T9, CSNK1G1 (Homo sapiens, UniProt Q9HCP0); settings: 35 at 1 µM; read-out: % inhibition
T9 construct: purchased Eurofins DiscoverX (KINOMEscan)
Experimental: as §1

CSNK2A1 = target: T10, CSNK2A1 (Homo sapiens, UniProt P68400); settings: 35 at 1 µM; read-out: % inhibition
T10 construct: purchased Eurofins DiscoverX (KINOMEscan)
Experimental: as §1

CTK = target: T11, CTK (Homo sapiens, UniProt P42679); settings: 35 at 1 µM; read-out: % inhibition
T11 construct: purchased Eurofins DiscoverX (KINOMEscan)
T11 sequence (P42679 whole entry): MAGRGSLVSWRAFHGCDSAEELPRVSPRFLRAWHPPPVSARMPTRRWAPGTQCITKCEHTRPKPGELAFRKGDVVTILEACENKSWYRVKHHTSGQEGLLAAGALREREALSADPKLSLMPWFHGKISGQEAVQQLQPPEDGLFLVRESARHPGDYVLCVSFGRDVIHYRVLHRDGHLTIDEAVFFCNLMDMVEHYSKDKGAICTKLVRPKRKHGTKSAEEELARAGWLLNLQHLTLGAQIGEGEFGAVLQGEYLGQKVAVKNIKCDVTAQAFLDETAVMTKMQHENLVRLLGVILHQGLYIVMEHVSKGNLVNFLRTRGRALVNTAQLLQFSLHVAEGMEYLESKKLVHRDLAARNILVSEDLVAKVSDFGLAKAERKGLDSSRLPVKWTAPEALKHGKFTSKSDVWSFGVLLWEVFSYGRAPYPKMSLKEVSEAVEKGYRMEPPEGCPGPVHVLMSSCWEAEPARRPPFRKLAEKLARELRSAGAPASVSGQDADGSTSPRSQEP
Experimental: as §1

DDR2 = target: T12, DDR2 (Homo sapiens, UniProt Q16832); settings: 35 at 1 µM; read-out: % inhibition
T12 construct: purchased Eurofins DiscoverX (KINOMEscan)
T12 sequence (Q16832 22-855): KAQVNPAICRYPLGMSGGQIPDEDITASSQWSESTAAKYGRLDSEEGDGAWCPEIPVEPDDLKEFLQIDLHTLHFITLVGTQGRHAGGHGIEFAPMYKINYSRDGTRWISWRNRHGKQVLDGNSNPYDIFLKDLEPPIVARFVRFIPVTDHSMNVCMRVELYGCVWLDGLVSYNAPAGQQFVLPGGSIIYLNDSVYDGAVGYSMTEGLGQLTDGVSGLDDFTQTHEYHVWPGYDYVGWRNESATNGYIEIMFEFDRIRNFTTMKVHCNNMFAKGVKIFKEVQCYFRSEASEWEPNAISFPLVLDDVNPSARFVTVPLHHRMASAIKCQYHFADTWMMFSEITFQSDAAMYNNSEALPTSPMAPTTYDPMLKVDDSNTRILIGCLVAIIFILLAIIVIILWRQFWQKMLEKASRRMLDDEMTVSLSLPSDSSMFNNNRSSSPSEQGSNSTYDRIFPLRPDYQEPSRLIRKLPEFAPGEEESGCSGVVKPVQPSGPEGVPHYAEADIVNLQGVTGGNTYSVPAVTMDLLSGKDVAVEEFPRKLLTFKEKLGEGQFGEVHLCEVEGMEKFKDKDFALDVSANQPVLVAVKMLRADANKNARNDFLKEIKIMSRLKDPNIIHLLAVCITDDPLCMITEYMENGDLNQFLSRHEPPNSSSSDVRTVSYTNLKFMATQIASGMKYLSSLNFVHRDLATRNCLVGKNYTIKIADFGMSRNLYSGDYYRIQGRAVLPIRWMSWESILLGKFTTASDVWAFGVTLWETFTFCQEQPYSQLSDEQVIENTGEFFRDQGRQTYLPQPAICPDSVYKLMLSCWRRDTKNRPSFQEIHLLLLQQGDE
Experimental: as §1

DYRK2 = target: T13, DYRK2 (Homo sapiens, UniProt Q92630); settings: 35 at 1 µM; read-out: % inhibition
T13 construct: purchased Eurofins DiscoverX (KINOMEscan)
Experimental: as §1

EGFR = target: T14, EGFR (Homo sapiens, UniProt P00533); settings: 35 at 1 µM; read-out: % inhibition
T14 construct: purchased Eurofins DiscoverX (KINOMEscan)
Experimental: as §1

EPHB6 = target: T15, EPHB6 (Homo sapiens, UniProt O15197); settings: 35 at 1 µM; read-out: % inhibition
T15 construct: purchased Eurofins DiscoverX (KINOMEscan)
Experimental: as §1

GRK1 = target: T16, GRK1 (Homo sapiens, UniProt Q15835); settings: 35 at 1 µM; read-out: % inhibition
T16 construct: purchased Eurofins DiscoverX (KINOMEscan)
Experimental: as §1

HIPK3 = target: T17, HIPK3 (Homo sapiens, UniProt Q9H422); settings: 35 at 1 µM; read-out: % inhibition
T17 construct: purchased Eurofins DiscoverX (KINOMEscan)
Experimental: as §1

INSR = target: T18, INSR (Homo sapiens, UniProt P06213); settings: 35 at 1 µM; read-out: % inhibition
T18 construct: purchased Eurofins DiscoverX (KINOMEscan)
Experimental: as §1

LATS2 = target: T19, LATS2 (Homo sapiens, UniProt Q9NRM7); settings: 35 at 1 µM; read-out: % inhibition
T19 construct: purchased Eurofins DiscoverX (KINOMEscan)
Experimental: as §1

LRRK2 = target: T20, LRRK2 (Homo sapiens, UniProt Q5S007); settings: 35 at 1 µM; read-out: % inhibition
T20 construct: purchased Eurofins DiscoverX (KINOMEscan)
Experimental: as §1

LYN = target: T21, LYN (Homo sapiens, UniProt P07948); settings: 35 at 1 µM; read-out: % inhibition
T21 construct: purchased Eurofins DiscoverX (KINOMEscan)
Experimental: as §1

MAP3K15 = target: T22, MAP3K15 (Homo sapiens, UniProt Q6ZN16); settings: 35 at 1 µM; read-out: % inhibition
T22 construct: purchased Eurofins DiscoverX (KINOMEscan)
Experimental: as §1

MAP3K3 = target: T23, MAP3K3 (Homo sapiens, UniProt Q99759); settings: 35 at 1 µM; read-out: % inhibition
T23 construct: purchased Eurofins DiscoverX (KINOMEscan)
Experimental: as §1

MARK4 = target: T24, MARK4 (Homo sapiens, UniProt Q96L34); settings: 35 at 1 µM; read-out: % inhibition
T24 construct: purchased Eurofins DiscoverX (KINOMEscan)
T24 sequence (Q96L34 whole entry): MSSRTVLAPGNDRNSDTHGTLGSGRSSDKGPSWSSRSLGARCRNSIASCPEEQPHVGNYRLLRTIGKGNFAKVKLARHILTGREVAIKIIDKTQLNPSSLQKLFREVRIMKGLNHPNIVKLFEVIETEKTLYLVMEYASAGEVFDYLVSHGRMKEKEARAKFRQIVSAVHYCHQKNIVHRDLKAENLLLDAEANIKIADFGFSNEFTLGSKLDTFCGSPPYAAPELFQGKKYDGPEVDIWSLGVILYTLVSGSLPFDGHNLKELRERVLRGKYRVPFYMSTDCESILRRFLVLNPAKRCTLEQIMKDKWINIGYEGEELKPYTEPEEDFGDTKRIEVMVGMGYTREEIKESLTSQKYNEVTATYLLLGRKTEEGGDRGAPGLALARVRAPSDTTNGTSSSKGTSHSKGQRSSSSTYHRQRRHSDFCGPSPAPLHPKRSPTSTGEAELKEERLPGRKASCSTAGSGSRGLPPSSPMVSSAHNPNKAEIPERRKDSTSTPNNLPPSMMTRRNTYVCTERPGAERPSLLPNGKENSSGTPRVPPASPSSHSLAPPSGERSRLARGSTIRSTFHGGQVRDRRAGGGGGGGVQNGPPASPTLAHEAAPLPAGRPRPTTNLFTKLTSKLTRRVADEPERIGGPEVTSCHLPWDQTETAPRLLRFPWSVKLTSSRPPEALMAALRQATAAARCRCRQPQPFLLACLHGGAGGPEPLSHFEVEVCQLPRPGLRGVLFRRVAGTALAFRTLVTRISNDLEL
Experimental: as §1

MST4 = target: T25, MST4 (Homo sapiens, UniProt Q9P289); settings: 35 at 1 µM; read-out: % inhibition
T25 construct: purchased Eurofins DiscoverX (KINOMEscan)
Experimental: as §1

NDR2 = target: T26, NDR2 (Homo sapiens, UniProt Q9Y2H1); settings: 35 at 1 µM; read-out: % inhibition
T26 construct: purchased Eurofins DiscoverX (KINOMEscan)
Experimental: as §1

NEK4 = target: T27, NEK4 (Homo sapiens, UniProt P51957); settings: 35 at 1 µM; read-out: % inhibition
T27 construct: purchased Eurofins DiscoverX (KINOMEscan)
Experimental: as §1

NEK7 = target: T28, NEK7 (Homo sapiens, UniProt Q8TDX7); settings: 35 at 1 µM; read-out: % inhibition
T28 construct: purchased Eurofins DiscoverX (KINOMEscan)
Experimental: as §1

PIK3CA(C420R) = target: T29, PIK3CA(C420R) (Homo sapiens, UniProt P42336, C420R); settings: 35 at 1 µM; read-out: % inhibition
T29 construct: purchased Eurofins DiscoverX (KINOMEscan)
Experimental: as §1

PIK3CA(E545A) = target: T30, PIK3CA(E545A) (Homo sapiens, UniProt P42336, E545A); settings: 35 at 1 µM; read-out: % inhibition
T30 construct: purchased Eurofins DiscoverX (KINOMEscan)
T30 sequence (P42336 whole entry E545A): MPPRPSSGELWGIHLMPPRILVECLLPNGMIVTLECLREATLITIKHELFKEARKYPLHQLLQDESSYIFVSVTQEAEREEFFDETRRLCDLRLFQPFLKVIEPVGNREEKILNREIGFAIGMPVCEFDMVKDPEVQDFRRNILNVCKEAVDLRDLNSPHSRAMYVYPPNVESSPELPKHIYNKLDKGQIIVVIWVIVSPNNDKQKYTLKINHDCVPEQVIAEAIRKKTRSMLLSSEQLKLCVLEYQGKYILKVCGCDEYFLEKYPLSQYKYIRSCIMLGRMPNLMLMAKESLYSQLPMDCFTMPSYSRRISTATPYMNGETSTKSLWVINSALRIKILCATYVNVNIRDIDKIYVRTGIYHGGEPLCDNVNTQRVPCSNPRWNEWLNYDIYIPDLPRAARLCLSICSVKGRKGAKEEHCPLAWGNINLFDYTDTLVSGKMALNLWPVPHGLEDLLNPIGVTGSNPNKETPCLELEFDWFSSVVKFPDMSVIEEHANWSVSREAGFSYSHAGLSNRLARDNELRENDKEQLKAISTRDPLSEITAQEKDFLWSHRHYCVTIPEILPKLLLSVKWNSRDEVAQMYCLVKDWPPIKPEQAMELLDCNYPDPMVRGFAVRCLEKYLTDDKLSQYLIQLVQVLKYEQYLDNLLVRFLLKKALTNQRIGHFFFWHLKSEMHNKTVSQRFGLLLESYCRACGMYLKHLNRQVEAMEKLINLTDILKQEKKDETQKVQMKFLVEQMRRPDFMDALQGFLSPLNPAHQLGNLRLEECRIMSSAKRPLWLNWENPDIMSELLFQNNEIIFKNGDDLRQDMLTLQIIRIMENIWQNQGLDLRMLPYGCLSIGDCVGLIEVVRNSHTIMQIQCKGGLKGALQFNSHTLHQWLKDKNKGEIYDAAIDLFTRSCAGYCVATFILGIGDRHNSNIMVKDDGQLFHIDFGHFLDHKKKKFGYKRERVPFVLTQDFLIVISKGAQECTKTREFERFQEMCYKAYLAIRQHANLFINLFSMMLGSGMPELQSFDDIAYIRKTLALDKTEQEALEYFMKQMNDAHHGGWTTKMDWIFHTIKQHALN
Experimental: as §1

PIK3CA(Q546K) = target: T31, PIK3CA(Q546K) (Homo sapiens, UniProt P42336, Q546K); settings: 35 at 1 µM; read-out: % inhibition
T31 construct: purchased Eurofins DiscoverX (KINOMEscan)
T31 sequence (P42336 whole entry Q546K): as the sequence (P42336 whole entry E545A) above, with A545E, Q546K counted along it
Experimental: as §1

PIM2 = target: T32, PIM2 (Homo sapiens, UniProt Q9P1W9); settings: 35 at 1 µM; read-out: % inhibition
T32 construct: purchased Eurofins DiscoverX (KINOMEscan)
Experimental: as §1

PKAC-alpha = target: T33, PKAC-alpha (Homo sapiens, UniProt P17612); settings: 35 at 1 µM; read-out: % inhibition
T33 construct: purchased Eurofins DiscoverX (KINOMEscan)
Experimental: as §1

PKNB(M.tuberculosis) = target: T34, PKNB(M.tuberculosis) (Mycobacterium tuberculosis, UniProt P9WI81); settings: 35 at 1 µM; read-out: % inhibition
T34 construct: purchased Eurofins DiscoverX (KINOMEscan)
Experimental: as §1

PRP4 = target: T35, PRP4 (Homo sapiens, UniProt Q13523); settings: 35 at 1 µM; read-out: % inhibition
T35 construct: purchased Eurofins DiscoverX (KINOMEscan)
Experimental: as §1

QSK = target: T36, QSK (Homo sapiens, UniProt Q9Y2K2); settings: 35 at 1 µM; read-out: % inhibition
T36 construct: purchased Eurofins DiscoverX (KINOMEscan)
T36 sequence (Q9Y2K2 whole entry): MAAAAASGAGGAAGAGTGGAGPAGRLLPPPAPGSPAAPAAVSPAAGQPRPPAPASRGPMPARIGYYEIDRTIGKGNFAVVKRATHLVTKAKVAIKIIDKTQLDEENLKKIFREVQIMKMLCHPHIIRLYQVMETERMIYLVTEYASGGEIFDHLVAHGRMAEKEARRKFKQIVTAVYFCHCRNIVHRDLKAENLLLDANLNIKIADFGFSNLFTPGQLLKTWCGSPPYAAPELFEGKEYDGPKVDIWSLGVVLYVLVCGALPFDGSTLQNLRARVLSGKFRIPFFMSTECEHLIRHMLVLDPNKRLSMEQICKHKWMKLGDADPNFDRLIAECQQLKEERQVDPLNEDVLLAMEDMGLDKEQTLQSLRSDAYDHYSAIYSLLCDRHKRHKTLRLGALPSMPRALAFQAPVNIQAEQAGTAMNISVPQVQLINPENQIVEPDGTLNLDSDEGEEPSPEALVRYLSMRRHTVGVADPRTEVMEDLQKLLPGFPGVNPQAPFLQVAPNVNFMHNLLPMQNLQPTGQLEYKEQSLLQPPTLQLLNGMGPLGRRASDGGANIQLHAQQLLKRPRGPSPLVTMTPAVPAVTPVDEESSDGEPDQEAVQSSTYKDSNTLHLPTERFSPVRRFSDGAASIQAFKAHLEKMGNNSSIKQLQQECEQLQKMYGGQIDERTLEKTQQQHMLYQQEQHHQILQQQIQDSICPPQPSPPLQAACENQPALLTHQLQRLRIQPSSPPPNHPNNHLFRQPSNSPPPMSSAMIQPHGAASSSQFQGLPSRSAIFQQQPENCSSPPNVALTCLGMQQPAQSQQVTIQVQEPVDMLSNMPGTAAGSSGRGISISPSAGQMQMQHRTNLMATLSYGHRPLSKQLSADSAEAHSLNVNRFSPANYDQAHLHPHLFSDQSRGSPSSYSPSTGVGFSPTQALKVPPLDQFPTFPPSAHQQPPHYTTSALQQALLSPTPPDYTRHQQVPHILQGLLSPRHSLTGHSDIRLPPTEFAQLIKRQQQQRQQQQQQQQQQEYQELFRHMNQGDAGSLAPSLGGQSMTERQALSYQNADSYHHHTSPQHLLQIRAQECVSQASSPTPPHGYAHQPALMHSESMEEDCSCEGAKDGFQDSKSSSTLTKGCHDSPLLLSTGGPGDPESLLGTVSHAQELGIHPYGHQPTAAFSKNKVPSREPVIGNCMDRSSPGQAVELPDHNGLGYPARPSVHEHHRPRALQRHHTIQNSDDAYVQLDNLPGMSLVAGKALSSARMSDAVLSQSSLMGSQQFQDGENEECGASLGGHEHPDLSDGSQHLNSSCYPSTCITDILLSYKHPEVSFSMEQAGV
Experimental: as §1

RET(M918T) = target: T37, RET(M918T) (Homo sapiens, UniProt P07949, M918T); settings: 35 at 1 µM; read-out: % inhibition
T37 construct: purchased Eurofins DiscoverX (KINOMEscan)
Experimental: as §1

RIPK2 = target: T38, RIPK2 (Homo sapiens, UniProt O43353)
T38 construct: purchased Eurofins DiscoverX (KINOMEscan)
T38 sequence (O43353 whole entry): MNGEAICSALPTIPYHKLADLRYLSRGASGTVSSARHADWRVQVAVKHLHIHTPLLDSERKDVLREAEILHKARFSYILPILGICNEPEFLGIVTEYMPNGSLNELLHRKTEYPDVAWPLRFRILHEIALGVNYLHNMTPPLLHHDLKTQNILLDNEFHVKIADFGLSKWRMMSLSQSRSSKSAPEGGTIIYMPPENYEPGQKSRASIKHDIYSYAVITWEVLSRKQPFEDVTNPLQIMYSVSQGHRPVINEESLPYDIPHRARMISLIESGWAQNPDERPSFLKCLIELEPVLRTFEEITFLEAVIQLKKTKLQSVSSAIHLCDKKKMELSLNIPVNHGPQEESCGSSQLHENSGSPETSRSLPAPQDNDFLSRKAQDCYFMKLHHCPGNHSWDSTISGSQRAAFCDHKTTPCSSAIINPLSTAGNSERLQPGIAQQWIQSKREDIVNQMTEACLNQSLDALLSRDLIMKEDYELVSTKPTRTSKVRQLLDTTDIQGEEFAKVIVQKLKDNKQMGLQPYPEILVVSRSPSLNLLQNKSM
Experimental: as §1

[2] = target: T39, RSK2(Kin.Dom.2-C-terminal) (Homo sapiens, UniProt P51812); settings: 35 at 1 µM; read-out: % inhibition
T39 construct: RSK2(Kin.Dom.2-C-terminal); purchased Eurofins DiscoverX (KINOMEscan)
Experimental: as §1

TESK1 = target: T40, TESK1 (Homo sapiens, UniProt Q15569); settings: 35 at 1 µM; read-out: % inhibition
T40 construct: purchased Eurofins DiscoverX (KINOMEscan)
Experimental: as §1

TLK1 = target: T41, TLK1 (Homo sapiens, UniProt Q9UKI8); settings: 35 at 1 µM; read-out: % inhibition
T41 construct: purchased Eurofins DiscoverX (KINOMEscan)
Experimental: as §1

[3] = target: T42, TYK2(JH2domain-pseudokinase) (Homo sapiens, UniProt P29597); settings: 35 at 1 µM; read-out: % inhibition
T42 construct: TYK2(JH2domain-pseudokinase); purchased Eurofins DiscoverX (KINOMEscan)
Experimental: as §1

With Brc1ccc2nccc(Nc3ccc4cn[nH]c4c3)c2c1 [Compound 35, 6-Bromo-N-(1H-indazol-6-yl)quinolin-4-amine] the activity at 1 µM [1] was 58%, the activity at 1 µM (ALK(C1156Y)) was 64% and the activity at 1 µM (CDC2L5) was 73%. The activity at 1 µM (CDK2) was 100%, the activity at 1 µM (CDK4) was 78% and the activity at 1 µM (CDK5) was 100%. The activity at 1 µM (CDKL1) was 47%, the activity at 1 µM (CDKL5) was 100% and the activity at 1 µM (CSNK1G1) was 100%. The activity at 1 µM (CSNK2A1) was 100%, the activity at 1 µM (CTK) was 93% and the activity at 1 µM (DDR2) was 100%. The activity at 1 µM (DYRK2) was 100%, the activity at 1 µM (EGFR) was 100% and the activity at 1 µM (EPHB6) was 100%. The activity at 1 µM (GRK1) was 68%, the activity at 1 µM (HIPK3) was 87% and the activity at 1 µM (INSR) was 99%. It also gave an activity at 1 µM (LATS2) of 88%, an activity at 1 µM (LRRK2) of 100% and an activity at 1 µM (LYN) of 100%. The activity at 1 µM (MAP3K15) was 98%, the activity at 1 µM (MAP3K3) was 100% and the activity at 1 µM (MARK4) was 100%. For the same compound, the activity at 1 µM (MST4) was 100%, the activity at 1 µM (NDR2) was 89% and the activity at 1 µM (NEK4) was 100%. For the same compound, the activity at 1 µM (NEK7) was 92%, the activity at 1 µM (PIK3CA(C420R)) was 100% and the activity at 1 µM (PIK3CA(E545A)) was 98%. It also gave an activity at 1 µM (PIK3CA(Q546K)) of 100%, an activity at 1 µM (PIM2) of 100% and an activity at 1 µM (PKAC-alpha) of 98%. For the same compound, the activity at 1 µM (PKNB(M.tuberculosis)) was 77%, the activity at 1 µM (PRP4) was 79% and the activity at 1 µM (QSK) was 100%. The activity at 1 µM (RET(M918T)) was 100%, the activity at 1 µM (RIPK2; 35 at 1 µM, read-out: % inhibition) was 29% and the inhibition at 1 µM (RIPK2; KinomeScan, screened at 1 μM, read-out: kinases inhibited at 1 μM: RIPK2) was 71%. It also gave an activity at 1 µM [2] of 100%, an activity at 1 µM (TESK1) of 100% and an activity at 1 µM (TLK1) of 95%. It also gave an activity at 1 µM [3] of 100%.
